The term IC50 denotes the midpoint of a concentration-inhibition curve. A word on the inhibition: it is the percentage by which the read-out fell short of the control.

Data on four substances can be found in US20140072613A1, “Compositions and Methods for Treating Cutaneous Scarring” (priority 2012, published 2014).

Where no end group is shown, it is not given here.

Test [1] relates to 266 human kinases. Put plainly: biochemical. As to conditions: at 100 μM. The class given is biochemical. The text has this:
(§1) Specifically, in these assays, a positively charged substrate is phosphorylated with a radiolabeled phosphate group from an ATP if the kinase is not inhibited by an inhibitor peptide. The positively charged substrate then is attracted to a negatively charged filter membrane, quantified with a scintillation counter, and compared to a 100% activity control.

Test [2] concerns hypertrophic scarring induced by mechanical loading. Put plainly: Mouse model of hypertrophic scarring induced by mechanical loading: scar area, gross and histological. The format is in vivo. Conditions: 50 μg/kg intraperitoneal daily day 0 through day 14.
Description: Dorsal skins were distracted laterally along both sides of the wound edge by a distraction rate of 1 mm/day from day 4 to day 7, and then 2 mm/day from day 8 to day 14. […] At day 14, skin wounds were photographed digitally, and scar areas were measured by Image J software. Tissue was harvested for RNA extraction, Florescence-Activated Cell Sorting (FACS) analysis, and histological examination.
Digital photographs were taken on the day of surgery and every two days thereafter. Gross scar appearance was assessed by tracing the wound margin and calculating the hypertrophic scar area.
Scar samples from each mouse were fixed in 10% formalin and embedded in paraffin. Sections were made and stained with hematoxylin and eosin (H&E) to assess scar tissue deposition. […] Scar areas were outlined, and areas were measured by using Image J software. Scale bar=100 μm.
In test [3] the target is 266 human kinases (Homo sapiens, UniProt Q9H1R3). Put plainly: biochemical. The class given is biochemical. Conditions: MLCK(h); 100 μM.
Description: as §1

The target of a further test is FGFR2 (h) (Homo sapiens, UniProt P21802). Put plainly: biochemical.
Description: as §1

For another test, the target named is EphA2 (h) (Homo sapiens, UniProt P29317). Kind of test: biochemical.
Description: as §1

For a further test, the target named is Yes (h) (Homo sapiens, UniProt P07947). Kind of test: biochemical.
Description: as §1

In a further test the target is CaMK1δ (h) (Homo sapiens, UniProt Q8IU85). Put plainly: biochemical.
Description: as §1

A further test concerns the target Fes(h) (Homo sapiens, UniProt P07332). Put plainly: biochemical.
Description: as §1

The target in a further test is Fgr (h) (Homo sapiens, UniProt P09769). Kind of test: biochemical.
Description: as §1

The target of another test is MSK1 (h) (Homo sapiens, UniProt O75582). Kind of test: biochemical.
Description: as §1

A further test deals with CaMKI (h) (Homo sapiens, UniProt Q14012). Kind of test: biochemical.
Description: as §1

In another test the target is Pim-1 (h) (Homo sapiens, UniProt P11309). Kind of test: biochemical.
Description: as §1

For a further test, the target named is T1, DMPK (h) (Homo sapiens, UniProt Q09013).
T1 sequence (Q09013 1-629): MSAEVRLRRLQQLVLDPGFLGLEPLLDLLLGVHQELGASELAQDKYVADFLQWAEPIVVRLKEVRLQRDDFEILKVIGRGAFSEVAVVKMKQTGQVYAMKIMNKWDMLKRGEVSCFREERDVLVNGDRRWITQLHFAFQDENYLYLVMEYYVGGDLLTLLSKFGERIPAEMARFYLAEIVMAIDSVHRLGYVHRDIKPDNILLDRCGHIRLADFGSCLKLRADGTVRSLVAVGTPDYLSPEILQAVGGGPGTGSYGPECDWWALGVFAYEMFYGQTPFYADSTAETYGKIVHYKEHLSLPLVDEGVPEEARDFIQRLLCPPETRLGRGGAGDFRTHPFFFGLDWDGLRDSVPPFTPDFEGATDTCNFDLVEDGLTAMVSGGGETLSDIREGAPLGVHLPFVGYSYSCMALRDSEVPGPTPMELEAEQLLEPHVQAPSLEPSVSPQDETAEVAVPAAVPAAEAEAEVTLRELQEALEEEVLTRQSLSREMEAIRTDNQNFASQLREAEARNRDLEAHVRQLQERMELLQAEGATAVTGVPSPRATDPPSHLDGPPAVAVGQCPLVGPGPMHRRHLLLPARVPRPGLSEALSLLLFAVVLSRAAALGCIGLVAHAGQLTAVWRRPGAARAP
Put plainly: Millipore radiometric kinase assay (IC50 Profiler Express). The class given is biochemical.
Description: as §1

Another test addresses LOK (h) (Homo sapiens, UniProt O94804). The description is as above. The class given is biochemical.
Description: as §1

The target of another test is EGFR (L861Q) (h) (Homo sapiens, UniProt P00533, L861Q). Described as above. The class given is biochemical.
Description: as §1

The next test concerns the target T2, DRAK1 (h) (Homo sapiens, UniProt Q9UEE5).
T2 sequence (Q9UEE5 1-414): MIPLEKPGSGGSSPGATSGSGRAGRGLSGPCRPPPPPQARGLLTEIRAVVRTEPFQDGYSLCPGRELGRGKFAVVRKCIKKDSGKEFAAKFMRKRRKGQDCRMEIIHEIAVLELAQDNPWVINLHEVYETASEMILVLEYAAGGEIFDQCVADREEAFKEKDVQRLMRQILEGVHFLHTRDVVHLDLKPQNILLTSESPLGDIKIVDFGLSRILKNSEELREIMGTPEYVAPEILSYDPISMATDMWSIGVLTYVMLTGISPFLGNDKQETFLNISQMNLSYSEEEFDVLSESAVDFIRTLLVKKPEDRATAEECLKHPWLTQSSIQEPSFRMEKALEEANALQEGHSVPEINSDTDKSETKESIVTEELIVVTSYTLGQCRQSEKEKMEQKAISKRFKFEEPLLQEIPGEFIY
The test is described as above. The format is biochemical.
Description: as §1

The next test addresses T3, Neurokinin 2 (Homo sapiens, UniProt P21452).
T3 construct: Cerep
Kind of test: Cerep binding assay (radiolabelled ligand competition). As for the experimental part: (§2) Each binding assay was performed in 6-control wells with or without vehicle plus an 8-point dose-response of the relevant reference compound.

Another test deals with T4, Melanocortin 4 (Homo sapiens, UniProt P32245).
T4 construct: Cerep
The test is described as above. The protocol:
as §2

Another test has as its target T5, Serotonin 2A (Homo sapiens, UniProt P28223).
T5 construct: Cerep
The test is described as above. As for the experimental part: as §2

A further test deals with MAPKAP-K2 (h) (Homo sapiens, UniProt P49137). Put plainly: Millipore radiometric kinase assay (IC50 Profiler Express / kinase profiling). The class given is biochemical.
Description: as §1

The target of a further test is MAPKAP-K3 (h) (Homo sapiens, UniProt Q16644). The description is as above. The class given is biochemical.
Description: as §1

A further test has as its target TrkB (h) (Homo sapiens, UniProt Q16620). The test is described as above. The format is biochemical.
Description: as §1

For a further test, the system named is PKC. As to conditions: AIP 1 μM; cited from earlier work.
The subject of another test is PKA. As to conditions: AIP 1 μM; cited from earlier work.
Test [4] deals with Ca^2+/calmodulin-dependent protein kinase II (CaMKII). As to conditions: cited from earlier work.
The target of a further test is CaMKIV (Homo sapiens, UniProt Q16566). Conditions: AIP 1 μM; cited from earlier work.
Where [5] appears, read: read-out: % Activity of off-target receptor.

T5 sequence (P28223 whole entry): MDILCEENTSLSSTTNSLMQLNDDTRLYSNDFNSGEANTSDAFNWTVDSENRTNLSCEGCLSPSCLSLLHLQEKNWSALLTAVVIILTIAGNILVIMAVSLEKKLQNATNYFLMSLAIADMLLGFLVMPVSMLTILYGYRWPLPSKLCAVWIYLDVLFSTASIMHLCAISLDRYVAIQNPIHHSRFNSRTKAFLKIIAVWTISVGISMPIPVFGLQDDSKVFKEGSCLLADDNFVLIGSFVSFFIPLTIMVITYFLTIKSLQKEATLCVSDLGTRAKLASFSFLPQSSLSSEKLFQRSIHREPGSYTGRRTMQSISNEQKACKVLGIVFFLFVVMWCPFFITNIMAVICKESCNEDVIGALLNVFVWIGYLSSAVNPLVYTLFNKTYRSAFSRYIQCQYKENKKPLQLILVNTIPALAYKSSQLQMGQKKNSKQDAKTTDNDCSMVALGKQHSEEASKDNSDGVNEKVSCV
Chain of TrkB (h) (Q16620 32-822): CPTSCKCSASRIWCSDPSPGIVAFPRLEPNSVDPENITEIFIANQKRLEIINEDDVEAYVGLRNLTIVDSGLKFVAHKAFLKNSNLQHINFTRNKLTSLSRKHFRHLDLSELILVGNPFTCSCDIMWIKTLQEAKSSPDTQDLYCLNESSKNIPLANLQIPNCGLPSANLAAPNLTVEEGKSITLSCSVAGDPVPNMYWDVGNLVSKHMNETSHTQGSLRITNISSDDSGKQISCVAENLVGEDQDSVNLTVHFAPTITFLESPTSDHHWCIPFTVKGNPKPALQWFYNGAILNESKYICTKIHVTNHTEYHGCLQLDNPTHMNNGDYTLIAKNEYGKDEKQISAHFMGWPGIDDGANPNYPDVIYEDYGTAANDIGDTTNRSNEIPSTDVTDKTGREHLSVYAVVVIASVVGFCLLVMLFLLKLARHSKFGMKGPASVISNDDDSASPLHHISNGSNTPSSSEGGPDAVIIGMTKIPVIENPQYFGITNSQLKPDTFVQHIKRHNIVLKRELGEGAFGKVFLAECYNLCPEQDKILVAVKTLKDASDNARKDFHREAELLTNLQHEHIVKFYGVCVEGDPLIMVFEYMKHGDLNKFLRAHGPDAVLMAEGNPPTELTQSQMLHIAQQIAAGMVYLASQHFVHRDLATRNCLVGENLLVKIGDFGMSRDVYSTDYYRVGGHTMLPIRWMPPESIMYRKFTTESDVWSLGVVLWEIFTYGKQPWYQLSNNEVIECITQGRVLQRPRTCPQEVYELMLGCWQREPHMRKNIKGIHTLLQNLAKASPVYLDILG
T4 sequence (P32245 whole entry): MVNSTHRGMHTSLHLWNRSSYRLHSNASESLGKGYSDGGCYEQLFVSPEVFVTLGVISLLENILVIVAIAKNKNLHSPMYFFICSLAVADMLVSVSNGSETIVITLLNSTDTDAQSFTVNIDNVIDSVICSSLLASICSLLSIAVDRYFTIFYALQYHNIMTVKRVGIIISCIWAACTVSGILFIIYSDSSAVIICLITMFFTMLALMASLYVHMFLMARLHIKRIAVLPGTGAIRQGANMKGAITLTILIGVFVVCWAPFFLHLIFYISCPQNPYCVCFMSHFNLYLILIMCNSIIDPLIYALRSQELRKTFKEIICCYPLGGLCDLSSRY
Chain of CaMKI (h) (Q14012 whole entry): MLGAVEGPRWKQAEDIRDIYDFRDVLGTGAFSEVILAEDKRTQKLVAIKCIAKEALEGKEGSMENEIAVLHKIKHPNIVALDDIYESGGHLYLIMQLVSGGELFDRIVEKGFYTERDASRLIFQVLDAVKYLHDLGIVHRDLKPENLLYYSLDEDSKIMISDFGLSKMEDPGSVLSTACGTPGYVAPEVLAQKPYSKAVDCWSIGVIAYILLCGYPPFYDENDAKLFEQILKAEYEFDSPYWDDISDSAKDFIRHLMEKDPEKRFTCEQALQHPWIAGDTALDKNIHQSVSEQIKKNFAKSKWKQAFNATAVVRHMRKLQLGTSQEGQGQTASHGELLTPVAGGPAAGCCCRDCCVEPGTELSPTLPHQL
T3 sequence (P21452 whole entry): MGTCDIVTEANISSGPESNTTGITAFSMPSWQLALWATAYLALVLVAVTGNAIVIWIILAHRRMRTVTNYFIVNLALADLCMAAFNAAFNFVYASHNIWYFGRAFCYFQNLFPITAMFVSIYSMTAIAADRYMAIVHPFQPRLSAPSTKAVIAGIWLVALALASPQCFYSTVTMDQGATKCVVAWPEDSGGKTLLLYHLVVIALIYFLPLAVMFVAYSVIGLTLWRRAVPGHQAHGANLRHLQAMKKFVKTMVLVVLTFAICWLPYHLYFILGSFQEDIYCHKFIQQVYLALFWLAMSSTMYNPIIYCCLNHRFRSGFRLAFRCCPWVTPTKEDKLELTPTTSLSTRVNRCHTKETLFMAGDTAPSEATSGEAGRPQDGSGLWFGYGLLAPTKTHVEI
Chain of MAPKAP-K3 (h) (Q16644 whole entry): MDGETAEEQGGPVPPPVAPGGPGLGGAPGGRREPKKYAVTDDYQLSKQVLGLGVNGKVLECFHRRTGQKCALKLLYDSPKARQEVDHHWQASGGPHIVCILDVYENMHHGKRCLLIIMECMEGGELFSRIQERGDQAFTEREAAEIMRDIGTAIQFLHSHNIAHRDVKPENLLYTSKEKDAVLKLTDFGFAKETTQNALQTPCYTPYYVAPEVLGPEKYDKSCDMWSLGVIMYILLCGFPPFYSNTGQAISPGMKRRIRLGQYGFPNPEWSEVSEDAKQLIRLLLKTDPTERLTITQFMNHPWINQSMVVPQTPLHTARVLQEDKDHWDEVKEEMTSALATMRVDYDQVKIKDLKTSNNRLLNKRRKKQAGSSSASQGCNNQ
Chain of MAPKAP-K2 (h) (P49137 whole entry): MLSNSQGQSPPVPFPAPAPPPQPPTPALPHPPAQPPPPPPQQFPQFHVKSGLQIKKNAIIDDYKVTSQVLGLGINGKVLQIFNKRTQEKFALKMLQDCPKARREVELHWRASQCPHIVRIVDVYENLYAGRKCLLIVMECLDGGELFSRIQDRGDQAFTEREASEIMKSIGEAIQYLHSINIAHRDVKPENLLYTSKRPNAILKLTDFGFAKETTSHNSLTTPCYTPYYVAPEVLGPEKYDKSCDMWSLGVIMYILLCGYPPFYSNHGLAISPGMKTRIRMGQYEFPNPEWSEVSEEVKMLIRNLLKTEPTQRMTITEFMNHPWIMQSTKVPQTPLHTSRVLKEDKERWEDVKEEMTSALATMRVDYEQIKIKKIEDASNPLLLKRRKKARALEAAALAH
Chain of Yes (h) (P07947 whole entry): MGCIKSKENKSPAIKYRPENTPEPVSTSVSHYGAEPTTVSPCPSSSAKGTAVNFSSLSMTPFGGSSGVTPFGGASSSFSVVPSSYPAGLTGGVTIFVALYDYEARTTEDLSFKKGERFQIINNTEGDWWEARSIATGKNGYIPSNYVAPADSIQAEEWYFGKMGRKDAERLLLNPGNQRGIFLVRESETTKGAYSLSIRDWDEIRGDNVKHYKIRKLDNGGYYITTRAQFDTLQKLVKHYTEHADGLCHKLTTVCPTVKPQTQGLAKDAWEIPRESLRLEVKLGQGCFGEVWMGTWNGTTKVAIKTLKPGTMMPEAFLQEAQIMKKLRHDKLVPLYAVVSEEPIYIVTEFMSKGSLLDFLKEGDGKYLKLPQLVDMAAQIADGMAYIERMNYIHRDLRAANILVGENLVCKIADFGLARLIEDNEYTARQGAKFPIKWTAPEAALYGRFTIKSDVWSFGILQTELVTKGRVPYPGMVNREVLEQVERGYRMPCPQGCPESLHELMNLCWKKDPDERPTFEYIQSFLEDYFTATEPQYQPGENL
Chain of Fes(h) (P07332 whole entry): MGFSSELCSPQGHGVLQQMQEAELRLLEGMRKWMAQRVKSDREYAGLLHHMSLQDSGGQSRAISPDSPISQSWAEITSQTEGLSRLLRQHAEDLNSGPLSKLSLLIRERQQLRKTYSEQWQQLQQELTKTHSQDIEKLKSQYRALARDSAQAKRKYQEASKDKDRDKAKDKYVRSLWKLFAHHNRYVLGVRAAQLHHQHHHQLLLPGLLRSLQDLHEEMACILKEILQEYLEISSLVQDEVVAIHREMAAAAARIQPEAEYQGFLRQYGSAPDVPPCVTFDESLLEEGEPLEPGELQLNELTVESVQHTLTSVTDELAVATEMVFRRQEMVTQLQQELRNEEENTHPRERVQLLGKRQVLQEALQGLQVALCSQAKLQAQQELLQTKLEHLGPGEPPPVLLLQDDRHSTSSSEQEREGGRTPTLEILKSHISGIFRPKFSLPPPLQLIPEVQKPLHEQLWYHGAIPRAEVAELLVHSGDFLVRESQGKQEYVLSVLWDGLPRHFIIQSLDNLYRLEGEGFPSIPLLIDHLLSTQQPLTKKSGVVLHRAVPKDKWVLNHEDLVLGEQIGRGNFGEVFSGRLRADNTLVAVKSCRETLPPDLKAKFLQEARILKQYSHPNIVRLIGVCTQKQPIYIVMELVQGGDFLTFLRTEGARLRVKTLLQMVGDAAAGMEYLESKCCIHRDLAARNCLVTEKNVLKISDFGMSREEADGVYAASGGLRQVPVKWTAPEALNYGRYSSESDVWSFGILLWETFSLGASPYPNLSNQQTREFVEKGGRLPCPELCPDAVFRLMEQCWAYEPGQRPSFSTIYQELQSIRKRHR
Chain of CaMK1δ (h) (Q8IU85 whole entry): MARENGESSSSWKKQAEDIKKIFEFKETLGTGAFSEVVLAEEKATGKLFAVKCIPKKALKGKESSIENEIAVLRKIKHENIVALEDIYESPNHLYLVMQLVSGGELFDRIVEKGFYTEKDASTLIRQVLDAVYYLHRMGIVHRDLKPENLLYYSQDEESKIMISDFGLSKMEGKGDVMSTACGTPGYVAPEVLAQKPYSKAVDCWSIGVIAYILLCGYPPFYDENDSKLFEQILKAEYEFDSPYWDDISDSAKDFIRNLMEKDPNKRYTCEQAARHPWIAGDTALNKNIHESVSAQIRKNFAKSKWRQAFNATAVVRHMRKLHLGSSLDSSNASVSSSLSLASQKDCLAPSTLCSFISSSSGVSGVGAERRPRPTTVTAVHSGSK

For the substance FAKLAARLYRKALARQLGVAA [MMI-0300], in the test on 266 human kinases [1], the off-target kinase inhibition entry is given as “very limited off-target kinase inhibition”. In addition, the “gross scar appearance vs PBS-treated control mouse” value in [2] was “less inflammation and less scar formation”.

For the substance KAFAKLAARLYRKALARQLGVAA [MMI-0400], the off-target kinase inhibition entry in the test with 266 human kinases [1] was “very limited off-target kinase inhibition”.

As for YARAAARQARAKALARQLGVAA [MMI-0100], the activity at 100 µM at 266 human kinases [3] turned out to be 85%; on Neurokinin 2 (setting [5]), 85%; on Melanocortin 4 (setting [5]) it was 81%; on Serotonin 2A (setting [5]) it was 86%. For the same substance, the IC50 stood at 172 µM at FGFR2 (h); 181 µM on EphA2 (h); 114 µM on Yes (h); 45.8 µM against CaMK1δ (h); 174 µM at Fes(h); 141 µM on Fgr (h). Further, the IC50 stood at 102 µM at MSK1 (h); 11.7 µM at CaMKI (h); 71.7 µM at Pim-1 (h); 34.1 µM against DMPK (h); 47.6 µM on LOK (h); 128 µM against EGFR (L861Q) (h). Moreover, the 50% inhibitory concentration (IC50) was 78.3 µM against DRAK1 (h), 12.1 µM at MAPKAP-K2 (h), 15.8 µM against MAPKAP-K3 (h) and 4.6 µM against TrkB (h). Moreover, the inhibition at 100 µM at CaMKI (h) (read-out: inhibition of kinase activity of CaMKI) was more than 65%; at MAPKAP-K2 (h) (at 100 μM, in vitro, read-out: inhibition of kinase activity of MK2) it was more than 65%; on MAPKAP-K3 (h) (at 100 μM, in vitro, read-out: inhibition of kinase activity of MK3), more than 65%; against TrkB (h) (at 100 μM, in vitro), more than 65%. Further, the “inhibition of off-target protein” value at Neurokinin 2 (concentration not given), at Melanocortin 4 (concentration not given) and at Serotonin 2A (concentration not given) was “less than 30%” each time.

Take “autocamtide-2 related inhibitory peptide [AIP]”: in the test with PKC, the PKC activity entry was “not affected”. The PKA activity entry with PKA was “not affected”. The CaMKII activity entry in [4] (AIP 1 μM) is “inhibited completely”. Moreover, the concentration for half-maximal inhibition (IC50) in test [4] was 0.1 µM. For the same substance, the CaMKIV activity result on CaMKIV is “not affected”.
